Laboratory results taken from patent publication US5633144A, “Assay pad and method for determination of the presence of total coliforms” (priority 1994, dated 1997).
Where two headings read alike, the source gives them in different places.

Columns and labels:
[1] = target: T1, beta-galactosidase (Escherichia coli, UniProt P00722); type: biochemical, E. coli EW1b; design: key: +++++: maximum color intensity; -: complete enzyme inactivation
T1 construct: one convenient source of beta-galactosidase is bacteria which produce this enzyme in useful amounts; endogenous in cells; host or cells: E. coli EW1b (Coli Genetic Stock Culture, Yale University), IPTG-induced, freeze-dried in trehalose, rehydrated

[2] = target: T1, beta-galactosidase; type: biochemical, E. coli EW1b
[3] = target: T1, beta-galactosidase; type: biochemical, E. coli EW1b; remark: listed apart in the source
[4] = test system: beta-galactosidase of E. coli EW1b; type: biochemical; conditions: for Color intensity, trehalose medium: freeze-dried in trehalose medium (22.4% w/v); for Color intensity, distilled water: freeze-dried in distilled water
[5] = cited from earlier work
[6] = Solubility and storage stability of CPRG; type: physicochemical; conditions: 50 mM K-phosphate buffer containing 1 mM MgCl2, pH 7.5, 4° C.
Protocol: CPRG was dissolved in 50 mM K-phosphate buffer containing 1 mM MgCl2. […] When the beta-galactosidase catalzyed hydrolysis of CPRG occurs, the resulting product on the MetPAD™ is purple and, thus, is easily detected visibly.

[7] = Stability of beta-galactosidase in freeze-dried cells; type: physicochemical, E. coli EW1b
Protocol: A. Preparation of freeze-dried cells
1. Stock cultures of E. coli EW1b are stored in 40% glycerol solution at -14° C. to -20° C.
2. Fifty μL of the stock culture are inoculated into 5 ml of LB-lactose medium (Bacto-tryptone: 1%; yeast extract: 0.5%; NaCl: 1.0%; K2 HPO4 : 0.15%; Lactose: 1%).
3. Cells are grown overnight at 35° C. The bacterial suspension is then diluted with 20 ml of fresh medium, amended with 1 ml of 0.2% (w/v) solution of isopropyl-beta-thiogalactoside (IPTG) and then allowed to grow to absorbance A550 =0.4-0.5.
4. Cells are centrifuged at 8000 RPM for 10 minutes.
5. The pellet is resuspended in distilled water.
6. The suspension is centrifuged for 10 minutes at 8000 RPM.
7. The suspension is resuspended in 2% trehalose to obtain an absorbance of A550 =0.2-0.25 (if using the MUGA pads for enzyme assay, an absorbance of A550 =0.10 is sufficient).
8. This suspension is dispensed in 3 ml aliquots in serum bottles.
9. The cells are frozen overnight at -40° C.
10. The frozen cells are freeze-dried for 24 hours and stored at subzero or at refrigerator temperature until used. […] Moreover, the enzyme was stable for at least 18 hours at 35° C.

[8] = test system: E. coli EW1b cells; experiment: Enhancement of beta-galactosidase production by inducer; type: cell-based; conditions: E. coli EW1b cells treated with inducer
From the text: As described above, one convenient source of beta-galactosidase is bacteria which produce this enzyme in useful amounts. Advantageously, the enzyme produced by the bacteria is readily accessible to the heavy metal and the substrate. […] Among the bacteria investigated by the applicants are E. coli C3000, E. coli EW1b, and a mixed culture of beta-galactosidase producers isolated from wastewater. E. coli C3000 is available from the American Type Culture Collection (ATCC), 12301 Parklawn Drive, Rockville, Md. 20852 USA. The culture has been assigned the accession number ATCC 15597 by the repository. E. coli EW1b is available from the Coli Genetic Stock Culture, Yale University, New Haven, Conn. The mixed culture was obtained following inoculation of LB-lactose-SDS broth with activated sludge effluent. Although these bacteria would perform well in the assay of the subject invention, E. coli C3000 was not as sensitive to heavy metal toxicity as E. coli EW1b or the mixture of beta-galactosidase producing bacteria. Moreover, due to potential problems in maintaining a mixed culture of bacteria, E. coli EW1b is the preferred microbe. […]
3. […] The bacterial suspension is then diluted with 20 ml of fresh medium, amended with 1 ml of 0.2% (w/v) solution of isopropyl-beta-thiogalactoside (IPTG) and then allowed to grow to absorbance A550 =0.4-0.5.

[9] = 400 ppm, maximum concentration tested at which no inhibition was observed

T1 sequence (P00722 2-1024): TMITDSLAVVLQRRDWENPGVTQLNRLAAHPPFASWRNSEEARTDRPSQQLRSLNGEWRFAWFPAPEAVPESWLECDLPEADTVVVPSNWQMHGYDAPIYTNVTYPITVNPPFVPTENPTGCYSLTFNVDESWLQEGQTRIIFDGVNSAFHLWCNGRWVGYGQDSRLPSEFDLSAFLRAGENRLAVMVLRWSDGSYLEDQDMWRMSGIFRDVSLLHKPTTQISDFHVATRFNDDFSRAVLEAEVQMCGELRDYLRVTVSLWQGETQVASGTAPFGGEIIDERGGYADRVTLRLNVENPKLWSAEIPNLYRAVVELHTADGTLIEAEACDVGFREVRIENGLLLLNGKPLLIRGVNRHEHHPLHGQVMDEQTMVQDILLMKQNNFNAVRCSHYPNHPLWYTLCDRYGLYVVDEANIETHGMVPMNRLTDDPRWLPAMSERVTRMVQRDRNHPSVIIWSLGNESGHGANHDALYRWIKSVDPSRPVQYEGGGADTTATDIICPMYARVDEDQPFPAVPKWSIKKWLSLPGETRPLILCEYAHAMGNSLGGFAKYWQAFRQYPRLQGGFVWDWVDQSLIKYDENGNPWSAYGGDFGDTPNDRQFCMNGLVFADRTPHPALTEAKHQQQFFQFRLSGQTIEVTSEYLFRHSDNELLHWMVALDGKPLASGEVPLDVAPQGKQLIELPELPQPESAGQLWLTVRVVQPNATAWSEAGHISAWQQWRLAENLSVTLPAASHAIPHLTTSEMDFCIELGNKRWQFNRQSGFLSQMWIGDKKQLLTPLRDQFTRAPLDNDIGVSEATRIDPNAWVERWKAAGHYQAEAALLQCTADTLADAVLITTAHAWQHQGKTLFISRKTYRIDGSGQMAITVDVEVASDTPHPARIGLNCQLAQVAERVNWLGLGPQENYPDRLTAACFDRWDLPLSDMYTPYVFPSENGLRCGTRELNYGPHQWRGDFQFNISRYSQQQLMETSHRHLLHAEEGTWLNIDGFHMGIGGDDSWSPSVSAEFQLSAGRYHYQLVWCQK

Oc1ccccc1 [Phenol]
Color intensity ([1]; 3000 ppm): +++++

Cn1cc(-c2ccccc2)c(=O)c(-c2cccc(C(F)(F)F)c2)c1 [Sonar (Fluoridone), Fluoridone]
Color intensity [1, 9]: +++++

Cl[C@H]1[C@H](Cl)[C@@H](Cl)[C@@H](Cl)[C@H](Cl)[C@H]1Cl [Lindane]
Color intensity ([1]; 500 ppm): +++++

O=S(=O)([O-])[O-].[Cd+2] [Cadmium (CdSO4), Cadmium]
Minimum inhibitory concentration (MIC), CPRG pads ([2]; CPRG pads): 0.30 µg/mL
Minimum inhibitory concentration (MIC), fluorescent pads ([2]; Fluorescent (MUGA) pads): 0.30 µg/mL
MIC (Minimum Inhibitory Concentration) ([3]; MetPAD): 0.2 µg/mL
Total inactivation (toxicant concentration which causes 100% inhibition of enzyme activity) ([3]; MetPAD): 1.0 mg/L
heavy metal toxicity, response of MetPAD (in words) ([3]; MetPAD, 7 heavy metals): most toxic among the metals tested
Color intensity, trehalose medium ([4]; 1.0 ppm): -
Color intensity, trehalose medium ([4]; 1.5 ppm): -

CCCCCCCCCCCCOS(=O)(=O)[O-].[Na+] [Sodium dodecyl sulfate]
Color intensity ([1]; 3000 ppm): +++++

O=S1(=O)OC(c2ccc(O)c(Cl)c2)(c2ccc(O[C@@H]3O[C@H](CO)[C@H](O)[C@H](O)[C@H]3O)c(Cl)c2)c2ccccc21 (stereo partly drawn) [CPRG, chlorophenol red-beta-D-galactopyranoside]
solubility [5]: more than 50 mmol/L
stability ([5]; must be protected from light): stable at -20 °C
stability of CPRG solution [6]: stable at 4 °C for one week

beta-galactosidase: enzyme of freeze-dried E. coli EW1b cells
stability of beta-galactosidase activity of freeze-dried cells ([7]; 4° C.): stable for several weeks
stability of the enzyme ([7]; 35° C.): at least 18 hours

Mercury [Mercury (HgSO4)]
Minimum inhibitory concentration (MIC), CPRG pads ([2]; CPRG pads): 0.25 µg/mL
Minimum inhibitory concentration (MIC), fluorescent pads ([2]; Fluorescent (MUGA) pads): 0.25 µg/mL
MIC (Minimum Inhibitory Concentration) ([3]; MetPAD): 0.5 µg/mL
Total inactivation (toxicant concentration which causes 100% inhibition of enzyme activity) ([3]; MetPAD): 1.0 mg/L
Color intensity, distilled water ([4]; 0.5 ppm): +++++
Color intensity, distilled water ([4]; 1.0 ppm): +++++
Color intensity, trehalose medium ([4]; 1.0 ppm): -
Color intensity, distilled water ([4]; 1.5 ppm): +++++
Color intensity, trehalose medium ([4]; 1.5 ppm): -
Color intensity, trehalose medium ([4]; 2.0 ppm): -

CC(C)S[C@@H]1O[C@H](CO)[C@H](O)[C@H](O)[C@H]1O [IPTG, isopropyl-beta-thiogalactoside]
beta-galactosidase production [8]: beta-galactosidase production could be enhanced

O=[N+]([O-])c1ccc(O)cc1 [p-nitrophenol]
Color intensity ([1]; 110 ppm): +++++

C=O [Formaldehyde]
Color intensity ([1]; 925 ppm, buffered to pH = 7.0 with K-phosphate buffer): +++++

O.O.O.O.O.O=S(=O)([O-])[O-].[Cu+2] [Copper (CuSO4.5H2 O), Copper]
Minimum inhibitory concentration (MIC), CPRG pads ([2]; CPRG pads): 0.50 µg/mL
Minimum inhibitory concentration (MIC), fluorescent pads ([2]; Fluorescent (MUGA) pads): 0.25 µg/mL
MIC (Minimum Inhibitory Concentration) ([3]; MetPAD): 0.5 µg/mL
Total inactivation (toxicant concentration which causes 100% inhibition of enzyme activity) ([3]; MetPAD): 1.0 mg/L
Color intensity, distilled water ([4]; 0.5 ppm): +++++
Color intensity, distilled water ([4]; 0.8 ppm): +++++
Color intensity, distilled water ([4]; 1.0 ppm): +++++
Color intensity, trehalose medium ([4]; 1.0 ppm): -
Color intensity, distilled water ([4]; 1.5 ppm): +++++
Color intensity, trehalose medium ([4]; 1.5 ppm): -

Oc1c(Cl)c(Cl)c(Cl)c(Cl)c1Cl [Pentachlorophenol]
Color intensity [1, 9]: +++++

Chromium [Cr (K2 Cr2 O7)]
Minimum inhibitory concentration (MIC), CPRG pads [2]: 25.00 µg/mL
Minimum inhibitory concentration (MIC), fluorescent pads [2]: 25.00 µg/mL
MIC (Minimum Inhibitory Concentration) [3]: 25.0 µg/mL
Total inactivation (toxicant concentration which causes 100% inhibition of enzyme activity) [3]: 50.0 mg/L

O=S(=O)([O-])[O-].[Zn+2] [Zinc (ZnSO4), Zinc]
Minimum inhibitory concentration (MIC), CPRG pads ([2]; CPRG pads): 0.5 to 1.00 µg/mL
Minimum inhibitory concentration (MIC), fluorescent pads ([2]; Fluorescent (MUGA) pads): 0.50 µg/mL
MIC (Minimum Inhibitory Concentration) ([3]; MetPAD): 0.5 to 1 µg/mL
Total inactivation (toxicant concentration which causes 100% inhibition of enzyme activity) ([3]; MetPAD): 3.0 mg/L
Color intensity, distilled water ([4]; 0.5 ppm): +++++
Color intensity, trehalose medium ([4]; 0.5 ppm): +++++
Color intensity, distilled water ([4]; 1.0 ppm): +++++
Color intensity, trehalose medium ([4]; 3.0 ppm): -
Color intensity, trehalose medium ([4]; 5.0 ppm): -
Color intensity, trehalose medium ([4]; 7.5 ppm): -
Color intensity, distilled water ([4]; 10.0 ppm): -
Color intensity, trehalose medium ([4]; 10.0 ppm): -

O.O.O.O.O.O.O=S(=O)([O-])[O-].[Ni+2] [Ni (NiSO4.6H2 O), Nickel]
Minimum inhibitory concentration (MIC), CPRG pads ([2]; CPRG pads): 8.00 µg/mL
Minimum inhibitory concentration (MIC), fluorescent pads ([2]; Fluorescent (MUGA) pads): 5.00 µg/mL
MIC (Minimum Inhibitory Concentration) ([3]; MetPAD): 8.0 µg/mL
Total inactivation (toxicant concentration which causes 100% inhibition of enzyme activity) ([3]; MetPAD): 20.0 mg/L

O=[N+]([O-])[O-].O=[N+]([O-])[O-].[Pb+2] [Lead (Pb(NO3)2), Lead]
Minimum inhibitory concentration (MIC), CPRG pads ([2]; CPRG pads): 5.00 µg/mL
Minimum inhibitory concentration (MIC), fluorescent pads ([2]; Fluorescent (MUGA) pads): 2.50 µg/mL
MIC (Minimum Inhibitory Concentration) ([3]; MetPAD): 5.0 µg/mL
Total inactivation (toxicant concentration which causes 100% inhibition of enzyme activity) ([3]; MetPAD): 15.0 mg/L
Color intensity, trehalose medium ([4]; 3.0 ppm): +++++
Color intensity, trehalose medium ([4]; 15.0 ppm): -
Color intensity, trehalose medium ([4]; 20.0 ppm): -

ClC(Cl)Cl [Chloroform]
Color intensity ([1]; 3250 ppm): +++++
